Source: patent US8088779B2, “Pyrazolo [1,5-alpha] pyrimidinyl derivatives useful as corticotropin-releasing factor (CRF) receptor antagonists” (SmithKline Beecham (Cork) Limited, priority 2005, dated 2012)

Experiments:
[1] = Thermodynamic relationship between Form 1 and Form 2 calculated from DSC melting data (method of Lian Yu); assay type: physicochemical; settings: for transition temperature: Form 2 T=110.35° C., ΔH=83.43 J/g; for thermodynamic relationship between the polymorphs (monotropic or enantiotropic): based on DSC data
Protocol: For a polymorphic substance, a property of particular interest is the relative thermodynamic stability of the polymorphs. The questions to be answered are the following:
b) for an enantiotropic system, where (Tt) lies.
The thermodynamic relationship between Form 1 and Form 2 of compound of Formula (I) was calculated using the melting data of polymorphs measured by DSC, according to what disclosed in: Lian Yu, Journal of Pharmaceutical Science, Vol. 84, No. 8, August 1995.
Taking samples of Form 1 and Form 2 as pure forms 1 and 2 respectively, and using the melting point and the ΔH obtainable by DSC data, it was possible to calculate the thermodynamic relationship and the transition temperature.
The above calculation has been performed using DSC data for a different sample of polymorph Form 1 of compound of Formula (I), showing the Differential Scanning Calorimetry (DSC) thermogram of FIG. 7, obtained by the same method discussed above.

[2] = Slurry conversion of a mixture of the two polymorphs, solid examined by XRPD; assay type: physicochemical; settings: 20.4 mg Form 1 + 21.3 mg Form 2 in saturated ethyl acetate/heptane=1/2 solution of Form 1, stirred at RT one day
Protocol: A saturated solution in ethyl acetate/heptane=½ of Form 1 of compound of Formula (I) (25 mg in 400 μL) was prepared.
20.4 mg of solid Form 1 of compound of Formula (I) were mixed with 21.3 mg of solid Form 2 of compound of Formula (I). That solid mixture was added to the above saturated solution. The slurry so obtained was stirred at RT one day long. The day after, the solid and liquid phase were separated by centrifugation, and the solid was simply left on air in order to dry and then examined by XPRD.

[3] = Form 1 sample of FIG. 6 (T=102.44° C., ΔH=71.18 J/g)
[4] = Form 1 sample of FIG. 7 (T=100.09° C., ΔH=75.46 J/g)

| transition temperature [1, 3] [°C] | transition temperature [1, 4] [°C] | thermodynamic relationship between the polymorphs (monotropic or enantiotropic) [1] | solid form after slurrying a mixture of Form 1 and Form 2 [2] | Structure (SMILES) |
| --- | --- | --- | --- | --- |
| 177 | 356 | monotropic relationship |  | CC[C@H](Nc1cc(C)nc2c(-c3ccc(OC)cc3C)c(C)nn12)c1nc(C)no1 [Form 1, [3-(4-Methoxy-2-methyl-phenyl)-2,5-dimethyl-pyrazolo[1,5-a]pyrimidin-7-yl]-[(S)-1-(3-methyl-[1,2,4]oxadiazol-5-yl)-propyl]-amine] |
| 177 | 356 | monotropic relationship | the solid was only constituted by Form 2 | CC[C@H](Nc1cc(C)nc2c(-c3ccc(OC)cc3C)c(C)nn12)c1nc(C)no1 [Form 2, [3-(4-methoxy-2-methyl-phenyl)-2,5-dimethyl-pyrazolo[1,5-a]pyrimidin-7-yl]-[(S)-1-(3-methyl-[1,2,4]oxadiazol-5-yl)-propyl]-amine] |
